Source: ChEMBL document CHEMBL3045199, “Synthesis of some (E)-6-[2-(furan-2-yl)ethenyl]-1,2,4-triazin-5-ones and their biological evaluation as antitumor agents” (2013)

Columns and labels:
Format in all cases: functional
LOX IMVI [1] = experiment: Cytotoxicity against Homo sapiens (human) LOXIMVI cells assessed as growth inhibition at 10 uM after 24 hr; conditions: read-out: GI
SN12C [2] = experiment: Cytotoxicity against Homo sapiens (human) SN12C cells after 48 hr by SRB assay
UACC-62 = experiment: Cytotoxicity against Homo sapiens (human) UACC62 cells after 48 hr by SRB assay; conditions: UACC-62, 48 h
KM12 = experiment: Cytotoxicity against Homo sapiens (human) KM12 cells after 48 hr by SRB assay; conditions: KM12, 48 h
SNB-19 = experiment: Cytotoxicity against Homo sapiens (human) SNB19 cells after 48 hr by SRB assay; conditions: SNB-19, 48 h
IGROV-1 [3] = experiment: Cytotoxicity against Homo sapiens (human) IGROV1 cells assessed as growth inhibition at 10 uM after 24 hr; conditions: IGROV-1, 24 h, read-out: GI
M14 [4] = experiment: Cytotoxicity against Homo sapiens (human) M14 cells after 48 hr by SRB assay; conditions: M14, 48 h
UO-31 = experiment: Cytotoxicity against Homo sapiens (human) UO31 cells after 48 hr by SRB assay; conditions: UO-31, 48 h
MCF7 = experiment: Cytotoxicity against Homo sapiens (human) MCF7 cells after 48 hr by SRB assay; conditions: MCF7, 48 h
IGROV-1 [5] = experiment: Cytotoxicity against Homo sapiens (human) IGROV1 cells after 48 hr by SRB assay; conditions: IGROV-1, 48 h
SW-620 = experiment: Cytotoxicity against Homo sapiens (human) SW620 cells after 48 hr by SRB assay; conditions: SW-620, 48 h
TK-10 [6] = experiment: Cytotoxicity against Homo sapiens (human) TK10 cells after 48 hr by SRB assay; conditions: TK-10, 48 h
NCI-H23 [7] = experiment: Cytotoxicity against Homo sapiens (human) NCI-H23 cells assessed as growth inhibition at 10 uM after 24 hr; conditions: NCI-H23, 24 h, read-out: GI
DU-145 = experiment: Cytotoxicity against Homo sapiens (human) DU145 cells after 48 hr by SRB assay; conditions: DU-145, 48 h
786-0 = experiment: Cytotoxicity against Homo sapiens (human) 786-0 cells assessed as growth inhibition at 10 uM after 24 hr; conditions: 786-0, 24 h, read-out: GI
ACHN = experiment: Cytotoxicity against Homo sapiens (human) ACHN cells after 48 hr by SRB assay
SK-MEL-5 = experiment: Cytotoxicity against Homo sapiens (human) SK-MEL-5 cells after 48 hr by SRB assay; conditions: SK-MEL-5, 48 h
SK-MEL-28 [8] = experiment: Cytotoxicity against Homo sapiens (human) SK-MEL-28 cells assessed as growth inhibition at 10 uM after 24 hr; conditions: SK-MEL-28, 24 h, read-out: GI
TK-10 [9] = experiment: Cytotoxicity against Homo sapiens (human) TK10 cells assessed as growth inhibition at 10 uM after 24 hr; conditions: TK-10, 24 h, read-out: GI
HCC 2998 = experiment: Cytotoxicity against Homo sapiens (human) HCC2998 cells assessed as growth inhibition at 10 uM after 24 hr; conditions: HCC 2998, 24 h, read-out: GI
[10] = Cytotoxicity against Homo sapiens (human) CNS cancer cells after 48 hr by SRB assay; conditions: Cancer cell lines
K562 = experiment: Cytotoxicity against Homo sapiens (human) K562 cells assessed as growth inhibition at 10 uM after 24 hr; conditions: K562, 24 h, read-out: GI
NCI-H23 [11] = experiment: Cytotoxicity against Homo sapiens (human) NCI-H23 cells after 48 hr by SRB assay; conditions: NCI-H23, 48 h
M14 [12] = experiment: Cytotoxicity against Homo sapiens (human) M14 cells assessed as growth inhibition at 10 uM after 24 hr; conditions: M14, 24 h, read-out: GI
UACC-257 = experiment: Cytotoxicity against Homo sapiens (human) UACC257 cells after 48 hr by SRB assay; conditions: UACC-257, 48 h
SN12C [13] = experiment: Cytotoxicity against Homo sapiens (human) SN12C cells assessed as growth inhibition at 10 uM after 24 hr; conditions: read-out: GI
COLO 205 = experiment: Cytotoxicity against Homo sapiens (human) COLO205 cells after 48 hr by SRB assay; conditions: COLO 205, 48 h
NCI-H460 = experiment: Cytotoxicity against Homo sapiens (human) NCI-H460 cells after 48 hr by SRB assay; conditions: NCI-H460, 48 h
SK-MEL-28 [14] = experiment: Cytotoxicity against Homo sapiens (human) SK-MEL-28 cells after 48 hr by SRB assay; conditions: SK-MEL-28, 48 h
NCI-H322M = experiment: Cytotoxicity against Homo sapiens (human) NCI-H322M cells assessed as growth inhibition at 10 uM after 24 hr; conditions: read-out: GI
U-251 = experiment: Cytotoxicity against Homo sapiens (human) U251 cells assessed as growth inhibition at 10 uM after 24 hr; conditions: U-251, 24 h, read-out: GI
OVCAR-8 = experiment: Cytotoxicity against Homo sapiens (human) OVCAR8 cells after 48 hr by SRB assay; conditions: OVCAR-8, 48 h
CAKI-1 = experiment: Cytotoxicity against Homo sapiens (human) Caki1 cells assessed as growth inhibition at 10 uM after 24 hr; conditions: CAKI-1, 24 h, read-out: GI
SF-295 = experiment: Cytotoxicity against Homo sapiens (human) SF295 cells after 48 hr by SRB assay; conditions: SF-295, 48 h
T47D = experiment: Cytotoxicity against Homo sapiens (human) T47D cells after 48 hr by SRB assay
LOX IMVI [15] = experiment: Cytotoxicity against Homo sapiens (human) LOXIMVI cells after 48 hr by SRB assay
[16] = read-out: LC50 (the source's name)

Nc1cc(-c2ccc(Cl)cc2)nn1-c1nc(=O)c(/C=C/c2ccco2)n[nH]1
inhibition of growth at 10 µM (LOX IMVI [1]): 50.1%
TGI (SN12C [2]): > 100 µM
GI50 (SN12C [2]; read-out: GI50): 18.7 µM
CC50 (SN12C [2]; [16]): > 100 µM
GI50 (SN12C [2]; read-out: pGI50 (converted)): 18.6 µM
LC50 (concentration killing 50% of cells) (UACC-62): > 100 µM
TGI (UACC-62): > 100 µM
GI50 (UACC-62; read-out: GI50): 5.07 µM
GI50 (UACC-62; read-out: pGI50 (converted)): 5.01 µM
TGI (KM12): 32 µM
GI50 (KM12; read-out: GI50): 3.19 µM
CC50 (KM12; [16]): > 100 µM
GI50 (KM12; read-out: pGI50 (converted)): 3.16 µM
TGI (SNB-19): 69.4 µM
GI50 (SNB-19; read-out: GI50): 5.81 µM
CC50 (SNB-19; [16]): > 100 µM
GI50 (SNB-19; read-out: pGI50 (converted)): 5.75 µM
inhibition of growth at 10 µM (IGROV-1 [3]): 65%
LC50 (M14 [4]): > 100 µM
TGI (M14 [4]): 31.7 µM
GI50 (M14 [4]; read-out: GI50): 2.27 µM
GI50 (M14 [4]; read-out: pGI50 (converted)): 2.29 µM
TGI (UO-31): 13.7 µM
GI50 (UO-31; read-out: GI50): 1.63 µM
CC50 (UO-31; [16]): > 100 µM
GI50 (UO-31; read-out: pGI50 (converted)): 1.62 µM
LC50 (concentration killing 50% of cells) (MCF7): > 100 µM
TGI (MCF7): 50.4 µM
GI50 (MCF7; read-out: GI50): 4.05 µM
GI50 (MCF7; read-out: pGI50 (converted)): 4.07 µM
LC50 (concentration killing 50% of cells) (IGROV-1 [5]): > 100 µM
TGI (IGROV-1 [5]): 37.8 µM
GI50 (IGROV-1 [5]; read-out: GI50): 4.89 µM
GI50 (IGROV-1 [5]; read-out: pGI50 (converted)): 4.9 µM
TGI (SW-620): > 100 µM
GI50 (SW-620; read-out: GI50): 5.02 µM
CC50 (SW-620; [16]): > 100 µM
GI50 (SW-620; read-out: pGI50 (converted)): 5.01 µM
LC50 (TK-10 [6]): > 100 µM
TGI (TK-10 [6]): 23.1 µM
GI50 (TK-10 [6]; read-out: GI50): 3.64 µM
GI50 (TK-10 [6]; read-out: pGI50 (converted)): 3.63 µM
inhibition of growth at 10 µM (NCI-H23 [7]): 41.2%
LC50 (DU-145): 55.4 µM
TGI (DU-145): 18.3 µM
GI50 (DU-145; read-out: GI50): 3.01 µM
GI50 (DU-145; read-out: pGI50 (converted)): 3.02 µM
inhibition of growth at 10 µM (786-0): 53.1%
LC50 (ACHN): > 100 µM
TGI (ACHN): 24.8 µM
GI50 (ACHN; read-out: GI50): 3.8 µM
GI50 (ACHN; read-out: pGI50 (converted)): 3.8 µM
TGI (SK-MEL-5): 24.8 µM
GI50 (SK-MEL-5; read-out: GI50): 3.83 µM
CC50 (SK-MEL-5; [16]): > 100 µM
GI50 (SK-MEL-5; read-out: pGI50 (converted)): 3.8 µM
inhibition of growth at 10 µM (SK-MEL-28 [8]): 33.6%
inhibition of growth at 10 µM (TK-10 [9]): 48.8%
inhibition of growth at 10 µM (HCC 2998): 51.5%
GI50 [10]: 4.99 µM
TGI [10]: 44.5 µM
CC50 [10, 16]: > 100 µM
inhibition of growth at 10 µM (K562): 58.3%
TGI (NCI-H23 [11]): 53.9 µM
GI50 (NCI-H23 [11]; read-out: GI50): 5.13 µM
CC50 (NCI-H23 [11]; [16]): > 100 µM
GI50 (NCI-H23 [11]; read-out: pGI50 (converted)): 5.13 µM
inhibition of growth at 10 µM (M14 [12]): 42.6%
LC50 (UACC-257): > 100 µM
TGI (UACC-257): 71.8 µM
GI50 (UACC-257; read-out: GI50): 6.59 µM
GI50 (UACC-257; read-out: pGI50 (converted)): 6.61 µM
inhibition of growth at 10 µM (SN12C [13]): 31.8%
TGI (COLO 205): 18.4 µM
GI50 (COLO 205; read-out: GI50): 3.44 µM
CC50 (COLO 205; [16]): > 100 µM
GI50 (COLO 205; read-out: pGI50 (converted)): 3.47 µM
TGI (NCI-H460): 13.9 µM
GI50 (NCI-H460; read-out: GI50): 1.88 µM
CC50 (NCI-H460; [16]): > 100 µM
GI50 (NCI-H460; read-out: pGI50 (converted)): 1.86 µM
LC50 (SK-MEL-28 [14]): > 100 µM
TGI (SK-MEL-28 [14]): 82.3 µM
GI50 (SK-MEL-28 [14]; read-out: GI50): 4.06 µM
GI50 (SK-MEL-28 [14]; read-out: pGI50 (converted)): 4.07 µM
inhibition of growth at 10 µM (NCI-H322M): 75.6%
inhibition of growth at 10 µM (U-251): 49.4%
TGI (OVCAR-8): 65.8 µM
GI50 (OVCAR-8; read-out: GI50): 4.47 µM
CC50 (OVCAR-8; [16]): > 100 µM
GI50 (OVCAR-8; read-out: pGI50 (converted)): 4.47 µM
inhibition of growth at 10 µM (CAKI-1): 99%
TGI (SF-295): 24.3 µM
GI50 (SF-295; read-out: GI50): 1.58 µM
CC50 (SF-295; [16]): > 100 µM
GI50 (SF-295; read-out: pGI50 (converted)): 1.58 µM
LC50 (T47D): > 100 µM
TGI (T47D): 44.2 µM
GI50 (T47D; read-out: GI50): 4.37 µM
GI50 (T47D; read-out: pGI50 (converted)): 4.37 µM
TGI (LOX IMVI [15]): 73.4 µM
GI50 (LOX IMVI [15]; read-out: GI50): 6.69 µM
CC50 (LOX IMVI [15]; [16]): > 100 µM
GI50 (LOX IMVI [15]; read-out: pGI50 (converted)): 6.76 µM

O=c1[nH]cc(F)c(=O)[nH]1 [FLUOROURACIL]
GI50 (SN12C [2]; read-out: pGI50 (converted)): 25.1 µM
GI50 (UACC-62; read-out: pGI50 (converted)): 12.6 µM
GI50 (KM12; read-out: pGI50 (converted)): 10 µM
GI50 (SNB-19; read-out: pGI50 (converted)): 126 µM
GI50 (M14 [4]; read-out: pGI50 (converted)): 50.1 µM
GI50 (UO-31; read-out: pGI50 (converted)): 5.01 µM
GI50 (MCF7; read-out: pGI50 (converted)): 1.58 µM
GI50 (IGROV-1 [5]; read-out: pGI50 (converted)): 12.6 µM
GI50 (SW-620; read-out: pGI50 (converted)): 25.1 µM
GI50 (TK-10 [6]; read-out: pGI50 (converted)): 126 µM
GI50 (DU-145; read-out: pGI50 (converted)): 10 µM
GI50 (ACHN; read-out: pGI50 (converted)): 10 µM
GI50 (SK-MEL-5; read-out: pGI50 (converted)): 12.6 µM
GI50 (NCI-H23 [11]; read-out: pGI50 (converted)): 12.6 µM
GI50 (UACC-257; read-out: pGI50 (converted)): 100 µM
GI50 (COLO 205; read-out: pGI50 (converted)): 6.31 µM
GI50 (NCI-H460; read-out: pGI50 (converted)): 1 µM
GI50 (SK-MEL-28 [14]; read-out: pGI50 (converted)): 50.1 µM
GI50 (OVCAR-8; read-out: pGI50 (converted)): 20 µM
GI50 (SF-295; read-out: pGI50 (converted)): 50.1 µM
GI50 (T47D; read-out: pGI50 (converted)): 79.4 µM
GI50 (LOX IMVI [15]; read-out: pGI50 (converted)): 6.31 µM
